In US6403794B2, “Substituted 2-amino-4-alkylamino-1,3,5-triazines as herbicides” (Bayer Aktiengesellschaft, priority 1996, dated 2002):
Read-outs that look alike come from different tables or passages of the source.

Key:
Format in all cases: in vivo
Abutilon [1] = assay: Post-emergence test; settings: greenhouse, 1000 g of ai./ha, after three weeks
Protocol: (§1) Solvent: 5 parts by weight of acetone
(§2) Emulsifier: 1 part by weight of alkylaryl polyglycol ether
(§3) To produce a suitable preparation of active compound, 1 part by weight of active compound is mixed with the stated amount of solvent, the stated amount of emulsifier is added and the concentrate is diluted with water to the desired concentration.
(§4) Test plants which have a height of 5-15 cm are sprayed with the preparation of active compound such that the particular amounts of active compounds desired are applied per unit area. The concentration of the spray liquor is chosen so that the particular amounts of active compound desired are applied in 1000 l of water/ha.
(§5) After three weeks, the degree of damage to the plants is scored visually in % damage, in comparison to the untreated control.
(§6) 0%=no effect (like untreated control)

Alopecurus [2] = assay: Post-emergence test; settings: greenhouse, 1000 g of ai./ha, after three weeks
Protocol: as §1, §2, §3, §4, §5, §6

Amaranthus [3] = assay: Post-emergence test; settings: for pest or weed control at 1000 g/ha / pest or weed control at 500 g/ha: Amaranthus, 504 h, read-out: degree of damage to the plants (% damage), Amaranthus; for pest or weed control at 500 g/ha: 500 g of ai./ha
Protocol: as §1, §2, §3, §4, §5, §6

Avena fatua = assay: Post-emergence test; settings: greenhouse, 1000 g of ai./ha, after three weeks
Protocol: as §1, §2, §3, §4, §5, §6

Cyperus = assay: Post-emergence test; settings: greenhouse, 1000 g of ai./ha, after three weeks
Protocol: as §1, §2, §3, §4, §5, §6

Setaria [4] = assay: Post-emergence test; settings: for pest or weed control at 1000 g/ha / pest or weed control at 500 g/ha: Setaria, 504 h, read-out: degree of damage to the plants (% damage), Setaria; for pest or weed control at 500 g/ha: 500 g of ai./ha
Protocol: as §1, §2, §3, §4, §5, §6

Sinapis = assay: Post-emergence test; settings: greenhouse, 1000 g of ai./ha, after three weeks
Protocol: as §1, §2, §3, §4, §5, §6

Xanthium = assay: Post-emergence test; settings: greenhouse, 1000 g of ai./ha, after three weeks
Protocol: as §1, §2, §3, §4, §5, §6

weeds [5] = assay: Post-emergence test
Protocol: as §1, §2, §3, §4, §5, §6

Abutilon [6] = assay: Pre-emergence test
Protocol: as §1, §2, §3
(§7) Seeds of the test plants are sown in normal soil. After about 24 hours, the soil is watered with the preparation of active compound. The amount of water per unit area is advantageously kept constant. The concentration of active compound in the preparation is immaterial, only the application rate of active compound per unit area matters.
(§8) After three weeks, the degree of damage to the plants is scored visually in % damage in comparison to the development of the untreated control.
as §6

Alopecurus [7] = assay: Pre-emergence test; settings: greenhouse, 1000 g of ai./ha, after three weeks
Protocol: as §1, §2, §3, §7, §8, §6

Amaranthus [8] = assay: Pre-emergence test
Protocol: as §1, §2, §3, §7, §8, §6

Galium [9] = assay: Pre-emergence test; settings: greenhouse, 1000 g of ai./ha, after three weeks
Protocol: as §1, §2, §3, §7, §8, §6

Setaria [10] = assay: Pre-emergence test; settings: greenhouse, 1000 g of ai./ha, after three weeks
Protocol: as §1, §2, §3, §7, §8, §6

weeds [11] = assay: Pre-emergence test
Protocol: as §1, §2, §3, §7, §8, §6

Echinochloa [12] = assay: Post-emergence test; settings: greenhouse, 500 g of ai./ha, after three weeks
Protocol: as §1, §2, §3, §4, §5, §6

Ipomoea = assay: Post-emergence test; settings: greenhouse, 500 g of ai./ha, after three weeks
Protocol: as §1, §2, §3, §4, §5, §6

Polygonum [13] = assay: Post-emergence test; settings: greenhouse, 500 g of ai./ha, after three weeks
Protocol: as §1, §2, §3, §4, §5, §6

Solanum = assay: Post-emergence test; settings: greenhouse, 500 g of ai./ha, after three weeks
Protocol: as §1, §2, §3, §4, §5, §6

Datura = assay: Pre-emergence test; settings: greenhouse, 500 g of ai./ha, after three weeks
Protocol: as §1, §2, §3, §7, §8, §6

Digitaria = assay: Pre-emergence test; settings: greenhouse, 500 g of ai./ha, after three weeks
Protocol: as §1, §2, §3, §7, §8, §6

Echinochloa [14] = assay: Pre-emergence test; settings: greenhouse, 500 g of ai./ha, after three weeks
Protocol: as §1, §2, §3, §7, §8, §6

Polygonum [15] = assay: Pre-emergence test; settings: greenhouse, 500 g of ai./ha, after three weeks
Protocol: as §1, §2, §3, §7, §8, §6

Veronica = assay: Pre-emergence test; settings: greenhouse, 500 g of ai./ha, after three weeks
Protocol: as §1, §2, §3, §7, §8, §6

Wheat [16] = assay: Pre-emergence test; settings: greenhouse, 500 g of ai./ha, after three weeks
Protocol: as §1, §2, §3, §7, §8, §6

Wheat [17] = assay: Post-emergence test; settings: greenhouse, 500 g of ai./ha, after three weeks
Protocol: as §1, §2, §3, §4, §5, §6

Galium [18] = assay: Post-emergence test; settings: greenhouse, 1000 g of ai./ha, after three weeks
Protocol: as §1, §2, §3, §4, §5, §6

[19] = greenhouse, 1000 g of ai./ha, after three weeks

CCC(CCc1cccs1)Nc1nc(N)nc(C(C)F)n1 (stereo not shown) [Example 23]
degree of damage to the plants (% damage), Abutilon (Abutilon [1]): 100% | degree of damage to the plants (% damage), Alopecurus (Alopecurus [2]): 90% | pest or weed control at 1000 g/ha (Amaranthus [3]; [19]): 100% | degree of damage to the plants (% damage), Avena fatua (Avena fatua): 100% | degree of damage to the plants (% damage), Cyperus (Cyperus): 100% | pest or weed control at 1000 g/ha (Setaria [4]; [19]): 100% | degree of damage to the plants (% damage), Sinapis (Sinapis): 100% | degree of damage to the plants (% damage), Xanthium (Xanthium): 100% | activity against weeds (weeds [5]): strong activity

CCC(CCc1ccccn1)Nc1nc(N)nc(C(C)F)n1 (stereo not shown) [Example 21]
pest or weed control at 1000 g/ha (Abutilon [6]; Abutilon, 504 h, greenhouse, 1000 g of ai./ha, after three weeks, read-out: degree of damage to the plants (% damage), Abutilon): 90% | degree of damage to the plants (% damage), Alopecurus (Alopecurus [7]): 100% | pest or weed control at 1000 g/ha (Amaranthus [8]; Amaranthus, 504 h, greenhouse, 1000 g of ai./ha, after three weeks, read-out: degree of damage to the plants (% damage), Amaranthus): 95% | degree of damage to the plants (% damage), Galium (Galium [9]): 80% | degree of damage to the plants (% damage), Setaria (Setaria [10]): 90% | activity against weeds (weeds [11]): strong activity

CC(C)C(CCc1ccc(Cl)cc1)Nc1nc(N)nc(C(C)(C)F)n1 (stereo not shown) [Example 29]
pest or weed control at 1000 g/ha (Abutilon [6]; Abutilon, 504 h, read-out: degree of damage to the plants (% damage), Abutilon): 80% | degree of damage to the plants (% damage), Alopecurus (Alopecurus [7]): 70% | pest or weed control at 1000 g/ha (Amaranthus [8]; Amaranthus, 504 h, read-out: degree of damage to the plants (% damage), Amaranthus): 80% | degree of damage to the plants (% damage), Galium (Galium [9]): 80% | activity against weeds (weeds [11]): strong activity

CCC(CCc1cccs1)Nc1nc(N)nc(C(C)(C)F)n1 (stereo not shown) [Example 24]
pest or weed control at 500 g/ha (Amaranthus [3]; greenhouse, after three weeks): 100% | degree of damage to the plants (% damage), Echinochloa (Echinochloa [12]): 100% | degree of damage to the plants (% damage), Ipomoea (Ipomoea): 100% | degree of damage to the plants (% damage), Polygonum (Polygonum [13]): 95% | pest or weed control at 500 g/ha (Setaria [4]; greenhouse, after three weeks): 80% | degree of damage to the plants (% damage), Solanum (Solanum): 95% | activity against weeds (weeds [5]): strong activity

CCC(CCc1ccsc1)Nc1nc(N)nc(C(F)(F)F)n1 (stereo not shown) [Example 12]
pest or weed control at 500 g/ha (Abutilon [6]; Abutilon, 504 h, greenhouse, 500 g of ai./ha, after three weeks, read-out: degree of damage to the plants (% damage), Abutilon): 100% | pest or weed control at 500 g/ha (Amaranthus [8]; Amaranthus, 504 h, greenhouse, 500 g of ai./ha, after three weeks, read-out: degree of damage to the plants (% damage), Amaranthus): 100% | degree of damage to the plants (% damage), Datura (Datura): 100% | degree of damage to the plants (% damage), Digitaria (Digitaria): 80% | degree of damage to the plants (% damage), Echinochloa (Echinochloa [14]): 100% | degree of damage to the plants (% damage), Polygonum (Polygonum [15]): 100% | degree of damage to the plants (% damage), Veronica (Veronica): 100% | degree of damage to the plants (% damage), Wheat (Wheat [16]): 0% | activity against weeds (weeds [11]): strong activity | pest or weed control at 500 g/ha (Amaranthus [3]; greenhouse, after three weeks): 100% | degree of damage to the plants (% damage), Echinochloa (Echinochloa [12]): 90% | degree of damage to the plants (% damage), Ipomoea (Ipomoea): 100% | degree of damage to the plants (% damage), Polygonum (Polygonum [13]): 100% | pest or weed control at 500 g/ha (Setaria [4]; greenhouse, after three weeks): 95% | degree of damage to the plants (% damage), Solanum (Solanum): 100% | degree of damage to the plants (% damage), Wheat (Wheat [17]): 10% | activity against weeds (weeds [5]): strong activity

CCC(CCc1ccccc1)Nc1nc(N)nc(C(F)(F)F)n1 (stereo not shown) [Example 45]
degree of damage to the plants (% damage), Abutilon (Abutilon [6]; [19]): 100% | degree of damage to the plants (% damage), Alopecurus (Alopecurus [7]): 80% | degree of damage to the plants (% damage), Amaranthus (Amaranthus [8]; [19]): 100% | degree of damage to the plants (% damage), Galium (Galium [9]): 100% | degree of damage to the plants (% damage), Setaria (Setaria [10]): 95% | activity against weeds (weeds [11]): strong activity | degree of damage to the plants (% damage), Abutilon (Abutilon [1]): 100% | degree of damage to the plants (% damage), Alopecurus (Alopecurus [2]): 80% | degree of damage to the plants (% damage), Amaranthus (Amaranthus [3]; [19]): 100% | degree of damage to the plants (% damage), Galium (Galium [18]): 100% | degree of damage to the plants (% damage), Setaria (Setaria [4]; [19]): 100% | degree of damage to the plants (% damage), Xanthium (Xanthium): 80% | activity against weeds (weeds [5]): strong activity

CCC(COc1ccc(Cl)cc1)Nc1nc(N)nc(C(F)(F)F)n1 (stereo not shown) [Example 44]
degree of damage to the plants (% damage), Abutilon (Abutilon [1]): 100% | degree of damage to the plants (% damage), Alopecurus (Alopecurus [2]): 80% | pest or weed control at 1000 g/ha (Amaranthus [3]): 100% | degree of damage to the plants (% damage), Galium (Galium [18]): 80% | pest or weed control at 1000 g/ha (Setaria [4]): 100% | degree of damage to the plants (% damage), Xanthium (Xanthium): 100% | activity against weeds (weeds [5]): strong activity
